Experimental data reported in patent US20020115689A1, “Combination therapy for treating neurodegenerative disease” (priority 1999, published 2002).

Test system: COX-1 and COX-2
Test: human whole blood assay (Chan, et al., JPET 290:551-560, 1999) for COX-1 and COX-2 inhibition
Assay type: cell-based
Settings: approximate COX-2 selectivity ratio = IC50 for inhibition of COX-1 divided by IC50 for inhibition of COX-2, human whole blood assay
Description: The ability of a compound to inhibit COX-1 and/or COX-2 may be characterized by reference to a wide variety of assays. […] Moreover, for purposes of this patent application a COX-2 selectivity ratio is defined by the IC50 for the inhibition of COX-1 divided by the IC50 for the inhibition of COX-2 as measured by the Chan, et al., human whole blood assay.

Structure (SMILES)	COX-1/COX-2 ratio of the IC50
Cc1ccc(-c2ncc(Cl)cc2-c2ccc(S(C)(=O)=O)cc2)cn1 [Compound 13, 5-chloro-3-(4-(methylsulfonyl)phenyl)-2-(2-methyl-5-pyridinyl)pyridine]	80
CS(=O)(=O)c1ccc(C2=C(c3ccccc3)C(=O)OC2)cc1 [Rofecoxib, 3-phenyl-4-(4-(methylsulfonyl)phenyl)-2-(5H)-furanone]	35.
Cc1cnc(NC(=O)C2=C(O)c3ccccc3S(=O)(=O)N2C)s1 [Meloxicam]	2.
CCC(=O)NS(=O)(=O)c1ccc(-c2c(-c3ccccc3)noc2C)cc1 [Pericoxib, N-[[4-(5-methyl-3-phenylisoxazol-4-yl)phenyl]sulfonyl]propanamide]	>100
COc1ccc2c(c1)c(CC(=O)O)c(C)n2C(=O)c1ccc(Cl)cc1 [Indomethacin]	0.4
Cc1ccc(-c2cc(C(F)(F)F)nn2-c2ccc(S(N)(=O)=O)cc2)cc1 [Celecoxib]	6.5
